“Also recorded” adds a separate entry of the source. Like-named read-outs stand apart in the source and are kept apart here.
Legend:
[1] = tested on: laboratory animals; conditions: cited from earlier work; for toxicity: in vivo
[2] = tested on: vines; conditions: cited from earlier work
[3] = tested on: Thompson Seedless Grapes; test: Percentage bud break on fruiting canes, vineyard trial; type: in vivo, Vitis; conditions: for bud break on fruiting canes, efficacy: compared to the untreated check
Source text: (§1) A portion of an established commercial vineyard was used for the study. The HBR (FIG. 1) treatments were replicated down a single row and arranged in sets of 3 vines per plot. Plots were flagged with colored ribbon to identify the treatments and there were 4 replicates each. Spray applications were made when the vines were still dormant on Day 0 (Feb. 12, 2019) or during the delayed dormant period, when buds were swollen or at eraser stage, on Day 24 (Mar. 8, 2019)). […] Crop injury was rated using a scale of 0-10, where 0=no injury and 10=100% of tree injured. Percentage bud break was evaluated by counting numbers of shoots from 30 nodes on fruiting canes from trunk to trunk and 5 renewal spurs were chosen non-systematically on Day 34 (Mar. 18, 2019) and Day 41 (Mar. 25, 2019).
Statistical differences were highly significant and variability in the data was low. Having waited until approximately 55 chill portions (a quantification of the aggregate low temperature exposure needed for a crop to break dormancy), the dormant sprays allowed both the Hydrogen Cyanamide (Dormex®) treated and untreated vines to accumulate the maximum chilling. […] Uniformity was enhanced by both Dormex® and 5 ppm ai HBR applied as a dormant spray. Variability was lowest in the untreated check by 41 DAA even though bud break had not reached 90%. It is not unusual for bud break to exceed 100% because secondary shoots were stimulated by the effects of overcoming apical dominance by both effective rest breaking and the accumulation of maximum chilling by untreated vines. FIGS. 6 and 7.

[4] = tested on: Thompson Seedless Grapes; test: Crop injury / phytotoxicity observation; set-up: species or system Vitis; conditions: in vivo
Source text: as §1

[5] = tested on: Thompson Seedless Grapes; test: Number of shoots (overcoming apical dominance); type: in vivo, Vitis
Source text: as §1

[6] = tested on: Thompson Seedless Grapes; test: Percentage bud break on renewal spurs, vineyard trial; type: in vivo, Vitis; conditions: by 41 DAA
Source text: as §1
However, the results were statistically significant between the rest breaking treatments as a group compared to the untreated check at both evaluation intervals. […] It appeared that spur bud break had peaked by 34 DAA because by 41 DAA, percentages were mostly the same. Only the untreated check continued to break buds, which remained approximately 15% lower than the rest breaking treatments as a group.

[7] = tested on: Thompson Seedless Grapes; test: Fruit growth uniformity; set-up: species or system Vitis; conditions: in vivo
[8] = tested on: nearby crops; conditions: in vivo; cited from earlier work
[9] = label for 0.1% HBR; SDS from Alzchem; cited from earlier work
[10] = tested on: Thompson Seedless Grapes; conditions: grapes and other fruit crops; cited from earlier work

In the case of CC[C@@H](C(C)C)C(O)C(O)[C@@H](C)[C@H]1CC[C@H]2[C@@H]3COC(=O)[C@H]4C[C@H](O)[C@H](O)C[C@]4(C)[C@H]3CC[C@]12C (stereo in doubt) [HBR, homobrassinolide], the toxicity [1] is listed as “non-toxic mode of action”, the “lowering of the fruitability of vines” value ([2]; in vivo) is listed as “no such effect” and the “bud break on fruiting canes, efficacy” value ([3]; 1 ppm ai applied at early bud swell) is listed as “as effective as the standard rate of Dormex”. For the same molecule, the “bud break on fruiting canes, efficacy” value ([3]; 2 ppm ai applied at early bud swell) was “as effective as the standard rate of Dormex”, the bud break uniformity ([3]; 5 ppm ai applied as a dormant spray) was “enhanced” and the “bud break on fruiting canes, effects” value ([3]; 5 ppm applied delayed dormant, 34 DAA) was “statistically equivalent to the untreated check”. For the same molecule, the active concentration range ([3]; in vivo) was “nano molar to pico molar range”, the crop injury [4] was “without crop injury” and the phytotoxicity [4] was “non-phytotoxic”. For the same molecule, the “shoots compared to control” value ([5]; 1 ppm ai) was “increased shoots compared to control”, the “shoots compared to control” value ([5]; 2 ppm ai) was “increased shoots compared to control” and the “shoots compared to control” value ([5]; 5 ppm ai) was “increased shoots compared to control”. The “shoots compared to the standard treatment” value ([5]; both 1 ppm ai and 1 ppm ai treatments (so in the source)) was “comparable to the Hydrogen Cyanamide standard treatment”, the number of shoots ([5]; either dormant or delayed dormant spray applications) was “increased number of shoots” and the “spur bud break, effects” value ([6]; 2 ppm ai applied at bud swell) was “equivalent to the untreated check”. For the same molecule, the fruit growth uniformity [7] was “enhance fruit growth uniformity” and the “effect on nearby crops” value [8] was “no evidence that HBR has harmful effects on nearby crops”.

For N#CN [Dormex, Hydrogen Cyanamide, reference compound], the “adverse effects in laboratory animals” value ([1]; California EPA Department of Pesticide Regulation study) is given as “causes adverse effects in the liver, thyroid, kidney, ovaries, and testes”, the toxicity [1] is given as “reported toxicity due to acute exposure; also recorded: can be acutely toxic when misused” and the “lowering of the fruitability of vines” value ([2]; repeated use over the years) is given as 20-30 % per year. The bud break uniformity ([3]; Dormex standard rate, dormant spray) was “enhanced”, the “amount needed to approach the effect of HBR, times” value ([3]; in vivo) was “approximately 20,000 times” and the biodegradability [9] was “not readily biodegradable”. The spur bud break [6] was under 100%, the “effect on nearby crops” value [8] was “can damage nearby crops” and the phytotoxicity [10] was “can be phytotoxic”.
